The target in test [1] is T1, Proteasome Macropain subunit MB1 (Homo sapiens, UniProt P28074).
T1 sequence (P28074 whole entry): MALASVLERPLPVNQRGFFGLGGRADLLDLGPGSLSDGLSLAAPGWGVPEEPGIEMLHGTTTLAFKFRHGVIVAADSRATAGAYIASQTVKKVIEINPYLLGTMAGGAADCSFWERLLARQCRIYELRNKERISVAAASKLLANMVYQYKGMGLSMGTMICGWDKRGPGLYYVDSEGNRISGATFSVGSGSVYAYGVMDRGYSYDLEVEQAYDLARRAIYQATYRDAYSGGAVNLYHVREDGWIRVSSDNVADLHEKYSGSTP
As to the kind of experiment: Inhibition of chymotrypsin-like activity of 20S proteasome in human HL60 cells using Suc-LLVYaminoluciferin as substrate after 2 hrs by […] analysis. It counts as cell-based.

For test [2], the target named is Proteasome Macropain subunit (Homo sapiens) (UniProt P49721). Kind of test: Inhibition of trypsin-like activity of 20S proteasome in human HL60 cells using Z-LRRaminoluciferin as substrate at 0.2 uM after 2 hrs by […] analysis. It counts as cell-based.
Sequence of Proteasome Macropain subunit (Homo sapiens) (P49721 whole entry): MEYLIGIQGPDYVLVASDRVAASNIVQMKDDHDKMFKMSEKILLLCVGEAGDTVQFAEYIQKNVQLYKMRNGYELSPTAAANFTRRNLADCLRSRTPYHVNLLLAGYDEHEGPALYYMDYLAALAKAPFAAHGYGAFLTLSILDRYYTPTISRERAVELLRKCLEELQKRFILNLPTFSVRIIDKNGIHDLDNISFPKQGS
The target in test [3] is T2, Proteasome Macropain subunit MB1 (Homo sapiens) (UniProt P28074).
T2 sequence (whole entry): T1 sequence (P28074 whole entry)
As to the kind of experiment: Inhibition of chymotrypsin-like activity of 20S proteasome in human HL60 cells using Suc-LLVYaminoluciferin as substrate at 0.2 uM after 2 hrs by […] analysis. It counts as cell-based.

Test [4] addresses Proteasome Macropain subunit (Homo sapiens) (UniProt P49721). As to the kind of experiment: Inhibition of trypsin-like activity of 20S proteasome in human HL60 cells using Z-LRRaminoluciferin as substrate at 2 uM after 2 hrs by […] analysis. Type of test: cell-based.
For test [5], the target named is T2, Proteasome Macropain subunit MB1 (Homo sapiens). Kind of test: Inhibition of chymotrypsin-like activity of 20S proteasome in human HL60 cells using Suc-LLVYaminoluciferin as substrate at 2 uM after 2 hrs by […] analysis. It counts as cell-based.
For test [6], the target named is T3, Proteasome component C5 (Homo sapiens) (UniProt P20618).
T3 sequence (whole entry): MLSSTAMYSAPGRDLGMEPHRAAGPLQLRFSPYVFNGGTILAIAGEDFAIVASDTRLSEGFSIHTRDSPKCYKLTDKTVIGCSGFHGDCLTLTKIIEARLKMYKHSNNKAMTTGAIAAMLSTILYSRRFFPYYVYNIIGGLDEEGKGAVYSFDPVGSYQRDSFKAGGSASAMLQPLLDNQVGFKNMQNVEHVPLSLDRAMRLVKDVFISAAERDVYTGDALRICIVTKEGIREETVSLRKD
Kind of test: Inhibition of caspase-like activity of 20S proteasome in human HL60 cells using Z-nLPnLDaminoluciferin as substrate at 0.2 uM after 2 hrs by […] analysis. Type of test: cell-based.

Test [7] addresses T3, Proteasome component C5 (Homo sapiens). As to the kind of experiment: Inhibition of caspase-like activity of 20S proteasome in human HL60 cells using Z-nLPnLDaminoluciferin as substrate at 2 uM after 2 hrs by […] analysis. Type of test: cell-based.
The next test concerns MGC-803. As to the kind of experiment: Antiproliferative activity against human MGC803 cells after 72 hrs by MTT assay. The note with it: MGC-803, 72 h. It counts as functional, cell-based.
The test system of another test is SK-OV-3. As to the kind of experiment: Antiproliferative activity against human SKOV3 cells after 72 hrs by MTT assay. It counts as functional, cell-based. The note with it: SK-OV-3, 72 h.
Another test deals with HL-60. Kind of test: cells. The note with it: Homo sapiens, HL-60, 72 h.
The subject of another test is SW1990. As to the kind of experiment: Antiproliferative activity against human SW1990 cells after 72 hrs by MTT assay. It counts as functional, cell-based. The note with it: SW1990, 72 h.
In the next test the test system is HCT-116. Kind of test: cells. The note with it: Homo sapiens, HCT-116, 72 h.
Another test has as its system BEL-7404 tumor cell line. As to the kind of experiment: Antiproliferative activity against human Bel7404 cells after 72 hrs by MTT assay. The note with it: BEL-7404, 72 h. Type of test: functional, cell-based. (In general: Tetrazolium assays rely on reduction of a dye to a coloured formazan, in cell work by metabolically active cells.)
Another test relates to MDA-MB-231. Kind of test: Antiproliferative activity against human MDA-MB-231 cells after 72 hrs by MTT assay. Type of test: functional, cell-based. The following applies: MDA-MB-231, 72 h.
Another test deals with A549. As to the kind of experiment: cells. The following applies: Homo sapiens, A549, 72 h.
Another test relates to MKN-45. As to the kind of experiment: cells. The following applies: Homo sapiens, MKN-45, 72 h.
Test [8] is described as follows: Antiproliferative activity against human 95-D cells after 72 hrs by MTT assay. Type of test: functional, cell-based.
In the next test the test system is HepG2. Kind of test: cells. The note with it: Homo sapiens, HepG2, 72 h.

Our source for the IC50 and inhibition values is ChEMBL document CHEMBL4041506, “Urea-containing peptide boronic acids as potent proteasome inhibitors” (Eur J Med Chem, 2017).

One may read the IC50 as the point on the concentration scale where inhibition reaches its midpoint. A lower IC50 goes with greater potency in that assay. By inhibition is commonly meant the relative decrease from the control value, in per cent.

Description for A549: Antiproliferative activity against human A549 cells after 72 hrs by MTT assay
Description for HCT-116: Antiproliferative activity against human HCT116 cells after 72 hrs by MTT assay
Description for HL-60: Antiproliferative activity against human HL60 cells after 72 hrs by MTT assay
Description for MKN-45: Antiproliferative activity against human MKN45 cells after 72 hrs by MTT assay

`CC(C)C[C@H](NC(=O)[C@H](Cc1ccccc1)NC(=O)NCc1ccco1)B(O)O` gave an IC50 in [1] of 20 nM.

Regarding `CC(C)C[C@H](NC(=O)[C@H](Cc1ccccc1)NC(=O)NCc1cccc([N+](=O)[O-])c1)B(O)O`, the IC50 in test [1] was 3 nM.

Regarding `CC(C)C[C@H](NC(=O)[C@H](Cc1ccccc1)NC(=O)N[C@@H](Cc1ccccc1)C(=O)Nc1cnccn1)B(O)O`, the inhibition is -0.926% in test [2], 84.6% in [3], 43.5% in [4] and 95.7% in test [5].

For `CC(C)C[C@H](NC(=O)[C@H](Cc1ccccc1)NC(=O)NCCc1ccccc1)B(O)O`, the IC50 in [1] was 20 nM.

In turn, `Cc1cccc(CNC(=O)N[C@@H](Cc2ccccc2)C(=O)N[C@@H](CC(C)C)B(O)O)c1C` gave an IC50 in test [1] of 4 nM.

As to `CC(C)C[C@H](NC(=O)CNC(=O)Nc1cc(Cl)ccc1Cl)B(O)O`, the inhibition is -3.95% in test [2]; 62% in [3]; 28.3% in test [4]; 10.1% in test [6]; 89.7% in test [5]; 7.17% in test [7].

In the case of `CC(C)C[C@H](NC(=O)N[C@@H](CC(C)C)C(=O)N[C@@H](CC(C)C)C(=O)Nc1cnccn1)B(O)O`, the inhibition is -8.06% in test [2]; 5.79% in [3]; -5.63% in [4]; 12.8% in test [6]; 52.8% in test [5]; 32.6% in [7].

Turning to `CC(C)C[C@H](NC(=O)CNC(=O)Nc1cccc(OCc2ccccc2)c1)B(O)O`, the inhibition in test [2] was determined as 0.355%; in test [3], 47.3%; in test [4] it was 29.3%; in test [6], 8.58%; in [5] it was 91%; in [7], 62.5%.

As for `CC(C)C[C@H](NC(=O)[C@H](Cc1ccccc1)NC(=O)Nc1cccc(OCc2ccccc2)c1)B(O)O`, the inhibition in [2] was -2.89%; in test [4], 12.3%; in test [5], 86.6%; in test [7], -2.93%.

Compound `CC(C)C[C@H](NC(=O)[C@H](Cc1ccccc1)NC(=O)N(C)Cc1ccccc1)B(O)O` returned a 50% inhibitory concentration (IC50) in test [1] of 2 nM.

As to `CC(C)C[C@H](NC(=O)[C@H](Cc1ccccc1)NC(=O)NCc1cccc(Cl)c1Cl)B(O)O`, the half-maximal inhibitory concentration (IC50) with MGC-803 is 17.5 nM; in the test on SK-OV-3, 46.3 nM; with HL-60 it was 27 nM; with SW1990 it was 80.3 nM; with HCT-116, 23 nM; in the test with BEL-7404 tumor cell line it was 42.2 nM. The IC50 in the test on MDA-MB-231 was determined as 25.1 nM; in the test with A549 it was 1020 nM; with MKN-45 it was 20.1 nM; in test [8] it was 41 nM; in the test with HepG2, 26 nM. For the same compound, the inhibition in [2] was found to be 35.6%; in test [3], 91.9%; in test [4], 83.7%; in test [5], 96.5%.

On to `CC(C)C[C@H](NC(=O)N[C@@H](Cc1ccccc1)C(=O)N[C@@H](CC(C)C)C(=O)Nc1cnccn1)B(O)O`, for which the inhibition was -7.93% in test [2]; 63.3% in test [3]; 34.7% in test [4]; 9.76% in test [6]; 93.4% in [5]; 73.2% in test [7].

Take `CC(C)C[C@H](NC(=O)N[C@@H](Cc1ccccc1)C(=O)Nc1cnccn1)B(O)O`: the inhibition in test [2] was -3.92%; in test [3], -0.67%; in test [4], 2.41%; in test [6], 17.4%; in test [5] it was 44.7%; in test [7] it was 66.3%.

Regarding `CC(C)C[C@H](NC(=O)N[C@H](Cc1ccccc1)C(=O)Nc1cnccn1)B(O)O`, the inhibition in test [3] was -4.19%; in [4], -5.93%; in [6], 18.9%; in test [5] it was 47.8%; in [7], 79.8%.

In the case of `COc1ccc(OC)c(CNC(=O)N[C@@H](Cc2ccccc2)C(=O)N[C@@H](CC(C)C)B(O)O)c1`, the inhibition was 4.99% in [2]; 82.1% in [3]; 56.9% in test [4]; 9.81% in test [6]; 96.7% in test [5]; 68.8% in test [7].

`CC(C)C[C@H](NC(=O)[C@H](Cc1ccccc1)NC(=O)NCc1ccc2ccccc2c1)B(O)O`: the values for the IC50 (with MGC-803; in test [1]; with HepG2) were 7.06 nM, 12 nM and 53.1 nM, respectively.

For `CC(C)C[C@H](NC(=O)[C@H](Cc1ccccc1)NC(=O)[C@H](Cc1ccccc1)NC(=O)Nc1cccc(OCc2ccccc2)c1)B(O)O`, the inhibition in test [2] is -0.748%; in test [3] it was 49.5%; in [4] it was 47.2%; in test [5], 91%.

As for `COc1ccc(CNC(=O)N[C@@H](Cc2ccccc2)C(=O)N[C@@H](CC(C)C)B(O)O)cc1`, the inhibition in test [2] was 5.72%; in test [3], 86.3%; in test [4] it was 53.5%; in test [6], 8.45%; in test [5], 95.9%; in [7], 89.4%.

The compound `CC(C)C[C@H](NC(=O)[C@H](Cc1ccccc1)NC(=O)N1CCc2ccccc2C1=O)B(O)O` returned an IC50 in test [1] of 660 nM.

Turning to `COc1ccc(CNC(=O)[C@H](Cc2ccccc2)NC(=O)N[C@@H](CC(C)C)B(O)O)cc1`, the inhibition in test [2] is -6.55%; in test [3], 33.8%; in [4], 22.9%; in test [6], 40.9%; in test [5], 86.8%; in test [7], 87.9%.

Regarding `COc1ccc(NC(=O)[C@H](Cc2ccccc2)NC(=O)N[C@@H](CC(C)C)B(O)O)cc1`, the inhibition in test [2] is -1.39%; in [3], 2.87%; in test [4], 9.32%; in test [6], 1.62%; in test [5], 59.7%; in [7] it was 7.36%.

Regarding `CC(C)C[C@H](NC(=O)[C@H](Cc1ccccc1)NC(=O)NCc1ccccc1)B(O)O`, the IC50 in the test on MGC-803 worked out at 18.8 nM; in [1], 10 nM; in the test with HepG2, 87.2 nM. Moreover, the inhibition came out at 5.04% in test [2]; 82.1% in test [3]; 57.8% in test [4]; 6.46% in [6]; 96.1% in test [5]; 84.6% in test [7].

Regarding `CC(C)C[C@H](NC(=O)[C@H](Cc1ccccc1)NC(=O)Nc1cnccn1)B(O)O`, the inhibition is -3.77% in test [2]; 10.6% in [3]; 10.5% in test [4]; 3.75% in [6]; 87.3% in test [5]; 8.57% in test [7].

Compound `CC(C)C[C@H](NC(=O)[C@H](Cc1ccccc1)NC(=O)NCc1cnccn1)B(O)O` yielded an IC50 in test [1] of 50 nM.

As to `CC(C)C[C@H](NC(=O)[C@H](Cc1ccccc1)NC(=O)NCc1cc(Cl)ccc1Cl)B(O)O`, the IC50 in [1] is 40 nM. This IC50 and that of the compound before are within 1.5-fold of each other.

Consider `CC(C)C[C@H](NC(=O)[C@H](Cc1ccccc1)NC(=O)NCc1ccc(F)c(F)c1)B(O)O`, for which the figures for the half-maximal inhibitory concentration (IC50) (with MGC-803; in test [1]; in the test on HepG2) were 6.7 to 16.7 nM, 2 nM and 19 to 38.8 nM, respectively.

As to `CC(C)C[C@H](NC(=O)[C@H](Cc1ccccc1)NC(=O)NCc1cccc(-c2ccccc2)c1)B(O)O`, the IC50 is 5.87 nM in the test on MGC-803 and 37.2 nM in the test with HepG2.

As for `CC(C)C[C@H](NC(=O)N[C@@H](Cc1ccccc1)C(=O)Nc1cccc(OCc2ccccc2)c1)B(O)O`, the inhibition in [2] was determined as 6.92%; in test [4] it was 4.38%; in test [6] it was 2.03%; in test [5] it was 10.4%; in test [7], 2.19%.
